Where a chain is given by its changes, count along the chain named. Where two headings read alike, the source gives them in different places.
Legend:
[1] = target: T1, mTGR5 (Mus musculus, UniProt Q80SS6); assay: TGR5 activity: cAMP in mTGR5 CHO-Pi10 clone 4 cells; format: cell-based; conditions: for Emax: 0.5 h, read-out: (mTGR5 CHO) Efficacy
T1 construct: expressed in transfected cells; host or cells: CHO-Pi10 clone 4
T1 sequence (Q80SS6 1-329): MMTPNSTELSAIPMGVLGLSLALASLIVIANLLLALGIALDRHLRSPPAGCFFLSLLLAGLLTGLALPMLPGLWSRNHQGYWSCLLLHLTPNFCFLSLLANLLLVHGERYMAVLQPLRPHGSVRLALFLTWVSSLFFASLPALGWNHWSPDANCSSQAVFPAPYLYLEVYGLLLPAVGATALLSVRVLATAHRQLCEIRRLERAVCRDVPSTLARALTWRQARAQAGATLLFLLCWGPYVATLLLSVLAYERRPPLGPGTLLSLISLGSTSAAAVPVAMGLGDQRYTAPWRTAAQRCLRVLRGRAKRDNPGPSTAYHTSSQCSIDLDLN

[2] = target: T2, mouse glutathione transferase-tagged FXR-LBD (Mus musculus, UniProt Q60641); assay: FXR AlphaScreen coactivator recruitment assay (mouse); format: biochemical; conditions: for EC50: read-out: (mFXR) EC50; for Emax: read-out: (mFXR) Efficacy
T2 construct: mouse glutathione transferase-tagged FXR-LBD (generated in-house); made in house
T2 sequence (Q60641 264-488 limits assumed): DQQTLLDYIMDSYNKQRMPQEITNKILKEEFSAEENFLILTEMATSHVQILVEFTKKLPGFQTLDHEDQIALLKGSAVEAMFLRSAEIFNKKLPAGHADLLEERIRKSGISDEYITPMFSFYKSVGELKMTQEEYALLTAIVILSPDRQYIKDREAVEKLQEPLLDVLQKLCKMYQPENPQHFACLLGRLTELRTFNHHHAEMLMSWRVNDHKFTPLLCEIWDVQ
Procedure: (§1) Activation of the FXR receptor was determined using a recruitment coactivator assay, namely AlphaScreen technology. The assays were performed using human glutathione transferase-tagged FXR-LBD (Life Technologies, USA) and mouse glutathione transferase-tagged FXR-LBD (generated in-house). Briefly, assays were conducted in white, low-volume, 384-well OptiPlate using a final volume of 25 μL containing 10 nM glutathione transferase-tagged FXR-LBD protein and 30 nM biotinylated Src-1 peptide. The stimulation was carried out with different BA concentrations for 30 minutes at 25° C. […] Dose-response curves were performed in triplicate and Z′ factor was used to validate the robustness of the assay.

[3] = target: T3, TGR5 (Homo sapiens, UniProt Q8TDU6); assay: TGR5 activity: intracellular cAMP levels, NCI-H716 cells (HTR-FRET); format: cell-based; design: endogenous in cells; host or cells: NCI-H716; conditions: for Emax: read-out: TGR5 (NCI-H716) Efficacy; for EC50: cAMP
T3 sequence (Q8TDU6 1-330): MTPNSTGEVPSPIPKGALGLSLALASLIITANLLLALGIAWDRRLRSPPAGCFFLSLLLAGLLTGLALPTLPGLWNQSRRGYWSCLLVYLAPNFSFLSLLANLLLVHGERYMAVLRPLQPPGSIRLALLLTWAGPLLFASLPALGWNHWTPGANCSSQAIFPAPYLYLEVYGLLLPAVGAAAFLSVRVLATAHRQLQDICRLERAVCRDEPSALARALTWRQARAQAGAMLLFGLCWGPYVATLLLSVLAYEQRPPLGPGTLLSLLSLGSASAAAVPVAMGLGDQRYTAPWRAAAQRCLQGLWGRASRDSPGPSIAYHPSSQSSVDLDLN
Procedure: Activation of TGR5 was assessed by measuring the level of cAMP using an HTR-FRET assay. Thus, NCI-H716 cells were cultured on 96-well plates coated with Matrigel (Corning, USA) (0.75 mg/ml) in DMEM supplemented with 10% FCS, 100 units/ml penicillin, and 100 μg/ml streptomycin sulphate. […] The level of intracellular cAMP was determined with Lance kit. Z′ factor was used to validate assays.

[4] = target: T4, human glutathione transferase-tagged FXR-LBD (Homo sapiens, UniProt Q96RI1); assay: FXR AlphaScreen coactivator recruitment assay (human); format: biochemical; design: Emax: dose or concentration left out as unconfirmed; conditions: for EC50: human FXR-LBD, AlphaScreen, read-out: hFXR EC50; for Emax: read-out: hFXR Efficacy;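 on hFXR Efficacy: CDCA at 50 µM taken as 100%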
T4 construct: human glutathione transferase-tagged FXR-LBD (Life Technologies, USA); purchased Life Technologies, USA
T4 sequence (Q96RI1 262-486 limits assumed): T2 sequence (Q60641 264-488 limits assumed) with D7H, Y8F, S46N, I50V, A95S, A98S, K107N, V125I, M174I, Y175H
Procedure: as §1

[5] = target: T3, TGR5; assay: TGR5 activity: cAMP in hTGR5 CHO-k1 cells; format: cell-based; design: expressed in transfected cells; host or cells: CHO-k1; conditions: for Emax: 0.5 h, read-out: hTGR5 CHO Efficacy; for EC50: cAMP
[6] = mTGR5 CHO cells, value in parentheses
[7] = mouse FXR-LBD, value in parentheses
[8] = 1 h, NCI-H716 cells, Ref. LCA 100% at 10 μM
[9] = hTGR5 CHO cells, Ref. LCA 100% at 10 μM

| SMILES | Emax [1, 6] [%] | EC50 [1, 6] [nM] | EC50 [2, 7] [nM] | Emax [2, 7] [%] | Emax [3, 8] [%] | EC50 ([3]; NCI-H716 cells) [nM] | EC50 [4] [nM] | Emax [4] [%] | Emax [5, 9] [%] | EC50 ([5]; hTGR5 CHO cells) [nM] | Emax ([1]; CHO) [%] | Emax ([5]; CHO) [%] | Emax [2] [%] | Emax ([3]; NCI-H716, 1 h) [%] |
| --- | --- | --- | --- | --- | --- | --- | --- | --- | --- | --- | --- | --- | --- | --- |
| CC[C@H]1[C@@H](O)C2C3CC[C@H]([C@H](C)CCc4noc(=O)[nH]4)[C@@]3(C)CCC2[C@@]2(C)CC[C@@H](O)C[C@@H]12 (stereo partly drawn) [Compound 16, 3α,7α-Dihydroxy-6α-ethyl-24-nor-5β-23([1,2,4]-oxadiazole-3-one-5-yl)-cholane] | 99 | 440 | 6600 | 204 | 116 ± 9 | 3000 ± 300 | 150 ± 50 | 165 ± 19 | 99 ± 4 | 1200 ± 100 | – | – | – | – |
| CC[C@H]1[C@@H](O)[C@@H]2[C@H](CC[C@]3(C)[C@@H]([C@H](C)CCc4nc(=O)o[nH]4)[C@@H](O)C[C@@H]23)[C@@]2(C)CC[C@@H](O)C[C@@H]12 [Compound 18] | 101 | 370 | 2300 | 150 | 115 ± 4 | 1800 ± 200 | 550 ± 30 | 132 ± 8 | 104 ± 1 | 110 ± 30 | – | – | – | – |
| CC[C@H]1[C@@H](O)[C@@H]2[C@H](C[C@H](O)[C@]3(C)[C@@H]([C@H](C)C[C@@H](O)C(=O)O)CC[C@@H]23)[C@@]2(C)CC[C@@H](O)C[C@@H]12 [Compound 2, 3α,7α,12α,23(R)-tetrahydroxy-6α-ethyl-5β-cholan-24-oic acid] | 93.5 | 1500 | 84000 | 61 | 55 | 12000 | 20000 ± 9000 | 200 | 47.5 ± 2.5 | 17000 ± 2000 | – | – | – | – |
| CC[C@H]1[C@@H](O)[C@@H]2[C@H](C[C@H](O)[C@]3(C)[C@@H]([C@H](C)C[C@@H](CF)C(=O)O)CC[C@@H]23)[C@@]2(C)CC[C@@H](O)C[C@@H]12 [Compound 6, 3α,7α,12α-Trihydroxy-6α-ethyl-23(A)-fluoromethyl-fluoromethyl-5β-cholan-24-oic acid] | – | 3800 | – | – | – | – | > 100000 | – | – | 29500 | 81 | 28 | – | – |
| CC[C@@H]1C2C[C@H](O)CC[C@]2(C)C2CC[C@@]3(C)C(CC[C@@H]3[C@H](C)Cc3nn[nH]n3)C2[C@@H]1O (stereo partly drawn) [Compound 13] | 90 | 2300 | 1400 | 208 | 84 ± 14 | 6400 ± 1100 | 430 | 138 | 102 ± 3 | 1000 ± 100 | – | – | – | – |
| CC[C@H]1[C@@H](O)C2C3CC[C@H]([C@H](C)CC(=O)NO)[C@@]3(C)CCC2[C@@]2(C)CC[C@@H](O)C[C@@H]12 (stereo partly drawn) [Compound 20] | 101 | 500 | 16000 | 85 | 148 ± 1 | 700 ± 100 | 8700 ± 40 | 122 ± 3 | 109 ± 5 | 300 ± 140 | – | – | – | – |
| CC[C@H]1[C@@H](O)C2C3CC[C@H]([C@H](C)C[C@H](CO)C(=O)O)[C@@]3(C)[C@@H](O)CC2[C@@]2(C)CC[C@@H](O)C[C@@H]12 (stereo partly drawn) [Compound 5, 3α,7α,12α-Trihydroxy-6α-ethyl-23(B)-hydroxymethyl-5β-cholan-24-oic acid] | – | 3400 | – | – | – | – | 20000 | 37 | – | 21000 | 84.6 | 43.6 | – | – |
| CC[C@H]1[C@@H](O)[C@@H]2[C@H](C[C@H](O)[C@]3(C)[C@@H]([C@H](C)C[C@H](CF)C(=O)O)CC[C@@H]23)[C@@]2(C)CC[C@@H](O)C[C@@H]12 [Compound 7, 3α,7α,12α-Trihydroxy-6α-ethyl-23(A)-fluoromethyl-fluoromethyl-5β-cholan-24-oic acid] | 119 | 2000 | – | – | – | – | 13000 | 83 | 27 | 7900 | – | – | – | – |
| CC[C@H]1[C@@H](O)[C@@H]2[C@H](C[C@H](O)[C@]3(C)[C@@H]([C@H](C)C[C@H](O)C(=O)O)CC[C@@H]23)[C@@]2(C)CC[C@@H](O)C[C@@H]12 [Compound 1, 3α,7α,12α,23(S)-tetrahydroxy-6α-ethyl-5β-cholan-24-oic acid] | 115 | 700 | 146000 | 9 | 40 | 19000 | 32000 ± 8000 | 52 | 103 ± 1 | 3500 ± 1500 | – | – | – | – |
| CC[C@H]1[C@@H](O)C2C3CC[C@H]([C@H](C)CCc4nnc(NS(C)(=O)=O)o4)[C@@]3(C)CCC2[C@@]2(C)CC[C@@H](O)C[C@@H]12 (stereo partly drawn) [Compound 23, 2-(3α,7α-Dihydroxy-6α-ethyl-5β-cholan-24-nor-23-cholanyl)-5-methylsulfonamido-1,3,4-oxadiazole] | – | 1400 | 330 | – | – | 12500 ± 1500 | 100 ± 20 | 175 ± 22 | – | 1300 ± 100 | 110 | 111 ± 2 | 342 | 75 ± 1 |

Reference: patent US10800807B2, “TGR5 modulators and methods of use thereof” (Intercept Pharmaceuticals, Inc., priority 2015, dated 2020)
